In series [1] the target is T1, Orexin receptor type 2 (Homo sapiens, UniProt O43614).
T1 sequence (O43614 whole entry): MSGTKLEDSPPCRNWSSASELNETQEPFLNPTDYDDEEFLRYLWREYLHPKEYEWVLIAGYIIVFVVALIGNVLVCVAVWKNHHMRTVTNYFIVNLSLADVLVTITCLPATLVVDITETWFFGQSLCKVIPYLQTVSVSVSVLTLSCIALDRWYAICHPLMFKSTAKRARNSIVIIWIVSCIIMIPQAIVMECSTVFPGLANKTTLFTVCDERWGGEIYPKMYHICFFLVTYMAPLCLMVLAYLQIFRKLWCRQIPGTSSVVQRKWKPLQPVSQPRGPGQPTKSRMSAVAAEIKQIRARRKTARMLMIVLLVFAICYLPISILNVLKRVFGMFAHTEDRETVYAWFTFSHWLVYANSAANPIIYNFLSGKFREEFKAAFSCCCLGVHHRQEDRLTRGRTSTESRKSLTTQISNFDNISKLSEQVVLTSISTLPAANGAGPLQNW
Kind of series: Antagonist activity at recombinant human OX2R expressed in CHO cells by FLIPR calcium based functional assay. The format is cell-based.

Series [2] has as its target T2, Orexin/Hypocretin receptor type 1 (Homo sapiens, UniProt O43613).
T2 sequence (O43613 whole entry): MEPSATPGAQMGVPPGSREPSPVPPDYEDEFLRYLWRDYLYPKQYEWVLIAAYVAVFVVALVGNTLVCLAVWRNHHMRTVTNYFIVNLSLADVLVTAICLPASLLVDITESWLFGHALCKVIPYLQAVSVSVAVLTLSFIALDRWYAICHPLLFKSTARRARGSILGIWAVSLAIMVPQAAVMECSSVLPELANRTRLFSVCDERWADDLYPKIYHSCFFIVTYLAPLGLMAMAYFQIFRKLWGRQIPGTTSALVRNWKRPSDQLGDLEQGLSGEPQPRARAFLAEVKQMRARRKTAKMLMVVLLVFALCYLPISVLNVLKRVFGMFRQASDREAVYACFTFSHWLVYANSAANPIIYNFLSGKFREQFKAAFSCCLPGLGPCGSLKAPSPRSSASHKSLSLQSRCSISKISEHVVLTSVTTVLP
Briefly: Antagonist activity at recombinant human OX1R expressed in CHO cells by FLIPR calcium based functional assay. The format is cell-based.

Series [3] deals with Liver microsomes. Briefly: Intrinsic clearance in human liver microsomes. It counts as ADME, Microsome. On the technique in general: Microsomes from liver hold many membrane-bound enzymes, among them those of drug oxidation.
Series [4] deals with Rattus norvegicus. Briefly: Neurotoxicity in CD rat assessed as impairment of motor coordination at 1 to 10 mg/kg, po by rotarod test. It counts as toxicity, organism-based. The following applies: in vivo. Also noted: dose 1-10 mg/kg, route oral. A general note: The rotarod test checks motor coordination on a turning rod.
The subject of series [5] is Rattus norvegicus. Briefly: Neurotoxicity in CD rat assessed as impairment of motor coordination at 1 to 10 mg/kg, po by rotarod test in presence of 1 g/kg, ip ethanol. The format is toxicity, organism-based. Also noted: dose 1-10 mg/kg, route oral. The following applies: in vivo.

Usually Ki stands for the equilibrium dissociation constant of an inhibitor or competing ligand from its target.

Molecules are shown by their SMILES.

With `CN(C[C@@H]1CCCCN1C(=O)c1ccccc1-c1ccccc1)C(=O)c1ccc(F)cc1`, the figures for the Ki in series [1] and in series [2] were 1260 nM and 501 nM, respectively.
Taken in the same sequence, the figures for `N#Cc1cccc(C(=O)N2CCCCC2CCOc2ccc(Cl)c(Cl)c2)c1` (racemic) were 631 nM and 398 nM.
For `O=C(c1cccc2ccccc12)N1CCCC[C@H]1CCOc1ccc(F)cc1` the same measures were 126 nM and 6.31 nM.
`COc1cccc(C(=O)N2CCCCC2CCOc2ccc(Cl)c(Cl)c2)c1` (racemic): the Ki is 501 nM in series [1] and 126 nM in series [2].
Consider `O=C(c1ccc(Cl)c(Cl)c1)N1CCCCC1CCOc1ccc(Cl)c(Cl)c1` (racemic), for which the Ki in series [1] was over 3160 nM; in series [2] it was 2510 nM.
With `O=C(NC[C@@H]1CCCCN1C(=O)c1ccccc1-c1ccccc1)c1ccccc1`, the Ki was 20 nM in series [1] and 7.94 nM in series [2].
Taken in the same sequence, the figures for `O=C(C[C@@H]1CCCCN1C(=O)c1ccccc1-c1ccccc1)Nc1ccccc1` were 31.6 nM and 50.1 nM.
For `O=C(CC[C@@H]1CCCCN1C(=O)c1ccccc1-c1ccccc1)c1ccccc1` the same measures were 20 nM and 10 nM.
Taken in the same sequence, the figures for `O=C(c1ccccc1-c1ccccc1)N1CCCC[C@H]1CCOc1ccc(F)cc1F` were 0.794 nM and 0.158 nM.
As to `O=C(c1ccccc1-c1ccccc1)N1CCCCC1CCOc1ccc(F)cc1` (racemic), the Ki in series [1] was 20 nM; in series [2] it was 5.01 nM. In series [3], the CL was over 50 mL/min/g.
Consider `O=C(NC[C@@H]1CCCCN1C(=O)c1ccccc1-c1ccccc1)Nc1ccccc1`, for which the Ki in series [1] was 5.01 nM; in series [2] it was 1 nM.
For the compound `Cc1ccc(-c2nc3ccc(C)cn3c2CC(=O)N(C)C)cc1` [ZOLPIDEM], the Activity entry in series [4] and in series [5] was “Toxic” in each case.
In the case of `O=C(NC[C@@H]1CCCCN1C(=O)c1ccccc1-c1ccccc1)c1ccc(F)cc1`, the Ki in series [1] was 0.251 nM; in series [2] it was 0.126 nM. Also, the CL in series [3] turned out to be 23 mL/min/g.
Turning to `O=C(NC[C@H]1CCCCN1C(=O)c1ccccc1-c1ccccc1)c1ccc(F)cc1`, the Ki in series [1] is 31.6 nM; in series [2], 39.8 nM.
